From ChEMBL document CHEMBL1201862, “PubChem BioAssay data set” (2004)
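Five compound concentrations were applied to cells in 96-well plates for 48 hours; endpoints were derived by simple linear interpolation of the resulting dose-response curve. GI50: concentration for 50% inhibition of growth.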 Calls of active or inactive are those of the source. Rule as the data show it: active = GI50 up to about 1.1 µM and inactive = higher.

Key:
Experiment in all cases: inhibition of tumour cell growth, NCI panel, 48 h
[1] = test system: K562
[2] = test system: MDA-MB-435
[3] = test system: MDA-N
[4] = test system: PC-3
[5] = test system: DMS-114

SMILES | GI50 [1] | GI50 [2] | GI50 [3] | GI50 [4] | GI50 [5]
CCC1=NC(C(F)(F)F)(C(F)(F)F)N=C(N2CCOCC2)O1 | > 100 µM (inactive) | > 100 µM (inactive) | > 100 µM (inactive) | > 100 µM (inactive) | –
CCOc1ccc(C(C)c2cc3c(cc2OC)OCO3)cc1 (stereo not given) | – | – | – | – | 0.214 µM (active)
